In patent US20090011051A1, “Methods, Compositions and Articles of Manufacture for HIF Modulating Compounds” (priority 2006, published 2009):
Read-outs that look alike come from different tables or passages of the source.

What was measured:
humans [1] = settings: cited from earlier work
rodents = settings: H2S gas; cited from earlier work
humans [2] = settings: chronic low-level exposure; cited from earlier work
[3] = tested on: nematodes (Caenorhabditis elegans)
Description: Nematodes of each strain in the fourth larval stage were moved onto fresh nematode growth plates. […] The nematodes were removed the next morning and the percent surviving nematodes was determined.

[4] = tested on: nematodes (Caenorhabditis elegans); experiment: Survival of C. elegans in H2S after pre-treatment with H2S gas (Example 2); format: in vivo; settings: air plus 200 ppm H2S
rats [5] = settings: cited from earlier work
[6] = extreme levels (500 ppm), followed by recovery; cited from earlier work
humans [7] = settings: H2S gas; cited from earlier work
rats [8] = settings: moderate levels, cited from earlier work

SMILES	symptoms (humans [1]; 50 ppm, humans)	symptoms (humans [1]; 200 ppm, within two-three hours)	symptoms (humans [1]; 400 ppm, within one to two hours, may become widespread within three hours)	symptoms (humans [1]; 800 ppm, within 45 minutes)	symptoms (humans [1]; 800 ppm, within two hours)	lethality (humans [1]; around 1000 ppm, an organism, exposure for more than around 1-2 minutes)	LD50 (rodents)	effects of chronic exposure (humans [2])	percent surviving nematodes ([3]; nematodes lacking the Egl-9 gene, air plus 100 ppm H2S, in contrast to wild type)	percent surviving nematodes ([3]; nematodes lacking the Hif-1 gene, fourth larval stage, air plus 20 ppm H2S, removed next morning)	percent surviving nematodes ([3]; wild type nematodes, fourth larval stage, air plus 20 ppm H2S, removed next morning)	percent surviving nematodes ([4]; Egl-9 mutant nematodes)	percent surviving nematodes ([4]; wild type nematodes raised in air)	neuropathology and behavior of exposed rat pups (rats [5]; perinatal study, 80 ppm)	cerebellar Purkinje cell morphology (rats [5]; rats, 20 or 50 ppm, 7 hours per day from gestation through post-natal day 21)	effect of acute exposure (knockdown effect) [6]	LD50 (humans [7])	discriminated avoidance responses (rats [8]; immediately after the end of the exposure)	learning of baited radial arm maze task (rats [8])
[C-]#[O+] [carbon monoxide, Carbon monoxide]	no symptoms	slight headache	frontal headache	dizziness, nausea, and/or convulsions	insensible	can expire	–	–	–	–	–	–	–	–	–	–	–	–	–
S [Compound H2S, Hydrogen sulfide]	–	–	–	–	–	–	approximately 700 ppm	persistent impairments in balance and memory, as well as altered sensory motor functions	survived	unable to survive	able to survive	survived	unable to survive	no neuropathological effects or altered motor activity, passive avoidance, or acoustic startle response	longer dendritic branches with reduced aborization of cerebellar Purkinje cells	sudden collapse and unconsciousness	approximately 700 ppm	inhibits discriminated avoidance responses	interferes with the ability of rats to learn a baited radial arm maze task
